In patent publication US20210052524A1, “N-ACETYLCYSTEINE AND UREA-BASED FORMULATION FOR THE TREATMENT OF DERMATOLOGICAL DISORDERS” (DERMALENA DI CALDERAN ANDREA, priority 2017, published 2021):

Experiments:
[1] = system: complex regional pain syndrome type I; details: 50% DMSO applied topically, N-acetylcysteine taken orally; cited from earlier work
[2] = system: abdominal incisional wound subjected to radiation; details: oral and intra-peritoneal administration, model subjected to radiation; cited from earlier work
[3] = Stability of the active ingredients in the formulation buffered to pH 5.5-6.5; type: physicochemical; details: pH 5.5-6.5 (lactic acid neutralized with sodium hydroxide) compared to more acidic or more basic conditions
From the text: Preferably, the present formulation for topical use is in the form of a cream or a lotion, and preferably has a pH between 5.5 and 6.5, advantageously about 6.

Structure (SMILES)	efficacy in the treatment of complex regional pain syndrome type I [1]	effect on histological, biochemical and mechanical parameters of incisional wound healing [2]	stability [3]
C[S+](C)[O-] [50% DMSO, DMSO]	equally efficient	–	–
CC(=O)N[C@@H](CS)C(=O)O [N-acetylcysteine]	equally efficient	effectiveness	improved
NC(N)=O [urea]	–	–	improved
